ChEMBL document CHEMBL1938304, “Synthesis, characterization and activity of new phosphonate dipeptides as potential inhibitors of VanX” (Bioorg Med Chem Lett, 2012)
pIC50: −log10 of the molar value. Activity calls are given as the source filed them. The calls are words filed in the database; no cut-off is given here.

How the values were obtained:
[1] = target: T1, D-alanyl-D-alanine dipeptidase (Enterococcus faecium, UniProt Q06241); test: Inhibition of Enterococcus faecium VanX overexpressed in Escherichia coli BL21 (DE3) cells using D-ala-D-ala as substrate preincubated for 30 mins measured after 150 secs by modified Cd-ninhydrin method
T1 sequence (Q06241 whole entry): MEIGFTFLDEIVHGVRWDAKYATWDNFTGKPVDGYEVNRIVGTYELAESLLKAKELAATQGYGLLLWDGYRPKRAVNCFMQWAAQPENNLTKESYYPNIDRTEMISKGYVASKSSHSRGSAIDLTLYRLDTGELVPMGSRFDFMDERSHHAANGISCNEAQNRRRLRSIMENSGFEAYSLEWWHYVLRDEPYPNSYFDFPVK

[2] = Inhibition of metallo-betalactamase CCrA using penicillin G as substrate up to 1 mM and pH 7
[3] = Inhibition of metallo-betalactamase L1 using penicillin G as substrate up to 1 mM and pH 7
[4] = Inhibition of metallo-betalactamase ImiS using penicillin G as substrate up to 1 mM and pH 7
[5] = target: T2, D-alanyl-D-alanine dipeptidase (Enterococcus faecium) (UniProt Q06241); test: Inhibition of Enterococcus faecium VanX overexpressed in Escherichia coli BL21 (DE3) cells using D-ala-D-ala as substrate up to 5 mM preincubated for 30 mins measured after 150 secs by modified Cd-ninhydrin method
T2 sequence (whole entry): T1 sequence (Q06241 whole entry)

[6] = target: T1, D-alanyl-D-alanine dipeptidase; test: Competitive inhibition of Enterococcus faecium VanX overexpressed in Escherichia coli BL21 (DE3) cells using D-ala-D-ala as substrate preincubated for 3 mins measured after 150 secs by modified Cd-ninhydrin method

SMILES | pIC50 [1] | inhibition [2] | inhibition [3] | inhibition [4] | inhibition [5] | pIC50 [6]
C[C@H](N)P(=O)(O)OCC(=O)O | 3.32 | inactive | inactive | inactive |  | 
C[C@H](N)P(=O)(O)O[C@H](Cc1ccccc1)C(=O)O | 2.09 | inactive | inactive | inactive |  | 
CC[C@H](C)[C@@H](OP(=O)(O)[C@H](C)N)C(=O)O | 2.88 | inactive | inactive | inactive |  | 
CC(C)C[C@@H](OP(=O)(O)[C@H](C)N)C(=O)O | 2.97 | inactive | inactive | inactive |  | 
CC(C)[C@@H](OP(=O)(O)[C@H](C)N)C(=O)O | 2.55 | inactive | inactive | inactive |  | 
C[C@H](N)P(=O)(O)O[C@H](CCC(=O)O)C(=O)O |  | inactive | inactive | inactive | inactive | 
C[C@H](N)P(=O)(O)O[C@H](C)C(=O)O |  | inactive | inactive | inactive |  | 3.12
